Literature values in US20120183610A1, “GLUCOCORTICOID THERAPY” (priority 2009, published 2012).
Values belong to the compound of their own block, whether it stands above or below them.

Tests used:
[1] = dose equivalent to 20 mg hydrocortisone
[2] = 30 to 15 mg daily; after 3 months
[3] = after 2.3 to 6.8 months; mean dose reduced to 20.8±1.0 mg; p<0.01

SMILES: C[C@]12C=CC(=O)C=C1CC[C@@H]1[C@@H]2[C@@H](O)C[C@@]2(C)[C@H]1CC[C@]2(O)C(=O)CO [Prednisolone]
- Equivalent amount [1]: 5 mg

- serum concentration of osteocalcin at re-evaluation [3]: 19.9 ng/mL
- BMI before dose reduction (11 patients with secondary adrenal insufficiency): 31.5±1.1 kg/m^2
- fasting glucose and insulin levels after dose reduction (dose reduced on average by 50%): unaffected
- BMI after dose reduction (dose reduced on average by 50%, follow-up 6-12 months): 29.4±1.0 kg/m^2
SMILES: C[C@]12CCC(=O)C=C1CC[C@@H]1[C@@H]2[C@@H](O)C[C@@]2(C)[C@H]1CC[C@]2(O)C(=O)CO [Hydrocortisone]
- body weight and cardiovascular functional variables after dose reduction [2]: no change in body weight or any of the cardiovascular functional variables studied
- Equivalent amount [1]: 20 mg
- body weight reduction, on average (dose reduced on average by 50%, 11 patients, follow-up 6-12 months): 7.1 kg

SMILES: CC(=O)OCC(=O)[C@@]1(O)CC[C@H]2[C@@H]3CCC4=CC(=O)CC[C@]4(C)[C@H]3C(=O)C[C@@]21C [Cortisone acetate]
- Equivalent amount [1]: 25 mg

SMILES: C[C@]12C=CC(=O)C=C1CC[C@H]1[C@@H]3C[C@@H](O)[C@](O)(C(=O)CO)[C@@]3(C)C[C@H](O)[C@@]12F [Triamcinolone]
- Equivalent amount [1]: 4 mg

SMILES: C[C@@H]1C[C@H]2[C@@H]3C[C@H](F)C4=CC(=O)C=C[C@]4(C)[C@H]3[C@@H](O)C[C@]2(C)[C@@]1(O)C(=O)CO [Paramethasone]
- Equivalent amount [1]: 2 mg
